Columns and labels:
Details in all cases: exposure time: 72 h
E13 [1] = patient-derived glioblastoma stem cells of classical subtype; assay: surviving fraction (nuclei count normalised to DMSO); higher = more cells surviving (less toxic)
E21 [2] = patient-derived glioblastoma stem cells of mesenchymal subtype; assay: as above
E28 [3] = patient-derived glioblastoma stem cells of classical subtype; assay: as above
E31 [4] = patient-derived glioblastoma stem cells of proneural subtype; assay: as above
E34 [5] = patient-derived glioblastoma stem cells of proneural subtype; assay: as above
E57 [6] = patient-derived glioblastoma stem cells of mesenchymal subtype; assay: as above
FT3469 [7] = normal neural stem cell line; assay: as above
E13 [8] = assay: phenotypic distance (Euclidean, principal components) from DMSO controls (arbitrary units); higher = stronger morphological change
E21 [9] = assay: as above
E28 [10] = assay: as above
E31 [11] = assay: as above
E34 [12] = assay: as above
E57 [13] = assay: as above
FT3469 [14] = assay: as above
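Wherever phenotypic distance (Euclidean, principal components) from DMSO controls is given: cell Painting imaging in 384-well plates, CellProfiler features reduced to at least 20 principal components, Euclidean distance versus same-plate DMSO vehicle wells (0.1% v/v), median over six images per well.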
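Wherever surviving fraction (nuclei count normalised to DMSO) is given: nuclei counted by high-content imaging of Hoechst-stained cells in laminin-coated 384-well plates, relative to 0.1% DMSO vehicle wells, with staurosporine as cell-death control.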

S=c1[nH]cnc2nc[nH]c12 [Mercaptopurine]
Details | phenotypic distance | surviving fraction
E13 [1], 4.1 nM | – | 0.921
E13 [1], 12.3 nM | – | 0.917
E13 [1], 37 nM | – | 0.937
E13 [1], 111.1 nM | – | 1.04
E13 [1], 333.3 nM | – | 0.899
E13 [1], 1000 nM | – | 1.07
E13 [1], 3000 nM | – | 0.933
E13 [8], 4.1 nM | 0.545 | –
E13 [8], 12.3 nM | 0.627 | –
E13 [8], 37 nM | 0.483 | –
E13 [8], 111.1 nM | 0.814 | –
E13 [8], 333.3 nM | 0.609 | –
E13 [8], 1000 nM | 0.518 | –
E13 [8], 3000 nM | 0.658 | –
E21 [2], 4.1 nM | – | 1.09
E21 [2], 12.3 nM | – | 1.04
E21 [2], 37 nM | – | 0.958
E21 [2], 111.1 nM | – | 1.01
E21 [2], 333.3 nM | – | 0.977
E21 [2], 1000 nM | – | 0.922
E21 [2], 3000 nM | – | 1.05
E21 [9], 4.1 nM | 0.78 | –
E21 [9], 12.3 nM | 1.43 | –
E21 [9], 37 nM | 0.81 | –
E21 [9], 111.1 nM | 0.892 | –
E21 [9], 333.3 nM | 0.78 | –
E21 [9], 1000 nM | 1.02 | –
E21 [9], 3000 nM | 0.813 | –
E28 [3], 4.1 nM | – | 0.929
E28 [3], 12.3 nM | – | 1.02
E28 [3], 37 nM | – | 0.893
E28 [3], 111.1 nM | – | 1.13
E28 [3], 333.3 nM | – | 0.931
E28 [3], 1000 nM | – | 0.942
E28 [3], 3000 nM | – | 0.996
E28 [10], 4.1 nM | 0.534 | –
E28 [10], 12.3 nM | 1.01 | –
E28 [10], 37 nM | 0.638 | –
E28 [10], 111.1 nM | 0.681 | –
E28 [10], 333.3 nM | 0.395 | –
E28 [10], 1000 nM | 0.531 | –
E28 [10], 3000 nM | 0.838 | –
E31 [4], 4.1 nM | – | 1.1
E31 [4], 12.3 nM | – | 1.04
E31 [4], 37 nM | – | 0.994
E31 [4], 111.1 nM | – | 1.08
E31 [4], 333.3 nM | – | 1
E31 [4], 1000 nM | – | 1.16
E31 [4], 3000 nM | – | 0.862
E31 [11], 4.1 nM | 0.771 | –
E31 [11], 12.3 nM | 0.551 | –
E31 [11], 37 nM | 0.636 | –
E31 [11], 111.1 nM | 0.699 | –
E31 [11], 333.3 nM | 0.484 | –
E31 [11], 1000 nM | 0.59 | –
E31 [11], 3000 nM | 0.762 | –
E34 [5], 4.1 nM | – | 1.04
E34 [5], 12.3 nM | – | 1.18
E34 [5], 37 nM | – | 1.17
E34 [5], 111.1 nM | – | 1.09
E34 [5], 333.3 nM | – | 0.961
E34 [5], 1000 nM | – | 1.18
E34 [5], 3000 nM | – | 0.823
E34 [12], 4.1 nM | 0.504 | –
E34 [12], 12.3 nM | 0.959 | –
E34 [12], 37 nM | 0.783 | –
E34 [12], 111.1 nM | 0.796 | –
E34 [12], 333.3 nM | 0.438 | –
E34 [12], 1000 nM | 0.992 | –
E34 [12], 3000 nM | 0.809 | –
E57 [6], 4.1 nM | – | 1.14
E57 [6], 12.3 nM | – | 1.06
E57 [6], 37 nM | – | 1.02
E57 [6], 111.1 nM | – | 1.03
E57 [6], 333.3 nM | – | 1.06
E57 [6], 1000 nM | – | 1.11
E57 [6], 3000 nM | – | 1.1
E57 [13], 4.1 nM | 0.611 | –
E57 [13], 12.3 nM | 0.822 | –
E57 [13], 37 nM | 1.19 | –
E57 [13], 111.1 nM | 0.97 | –
E57 [13], 333.3 nM | 0.524 | –
E57 [13], 1000 nM | 0.658 | –
E57 [13], 3000 nM | 0.893 | –
FT3469 [7], 4.1 nM | – | 1.13
FT3469 [7], 12.3 nM | – | 1.18
FT3469 [7], 37 nM | – | 1.05
FT3469 [7], 111.1 nM | – | 1.24
FT3469 [7], 333.3 nM | – | 1.1
FT3469 [7], 1000 nM | – | 1.09
FT3469 [7], 3000 nM | – | 1.18
FT3469 [14], 4.1 nM | 0.501 | –
FT3469 [14], 12.3 nM | 0.977 | –
FT3469 [14], 37 nM | 0.81 | –
FT3469 [14], 111.1 nM | 1.22 | –
FT3469 [14], 333.3 nM | 0.759 | –
FT3469 [14], 1000 nM | 0.781 | –
FT3469 [14], 3000 nM | 0.82 | –

C[C@@H](O)[C@H]1C(=O)N2C(C(=O)O)=C(S[C@@H]3CN[C@H](C(=O)N(C)C)C3)[C@H](C)[C@H]12 [Meropenem]
Details | phenotypic distance | surviving fraction
E13 [1], 4.11523 nM | – | 0.996
E13 [1], 12.34567901 nM | – | 1.11
E13 [1], 37.037 nM | – | 0.951
E13 [1], 111.1111111 nM | – | 1.09
E13 [1], 333.333 nM | – | 1.05
E13 [1], 1000 nM | – | 1.31
E13 [1], 3000 nM | – | 1.17
E13 [8], 4.11523 nM | 0.447 | –
E13 [8], 12.34567901 nM | 0.391 | –
E13 [8], 37.037 nM | 0.465 | –
E13 [8], 111.1111111 nM | 0.343 | –
E13 [8], 333.333 nM | 0.428 | –
E13 [8], 1000 nM | 1.47 | –
E13 [8], 3000 nM | 0.693 | –
E21 [2], 4.11523 nM | – | 1.15
E21 [2], 12.34567901 nM | – | 1.14
E21 [2], 37.037 nM | – | 1.07
E21 [2], 111.1111111 nM | – | 1.11
E21 [2], 333.333 nM | – | 1.02
E21 [2], 1000 nM | – | 1.16
E21 [2], 3000 nM | – | 1.06
E21 [9], 4.11523 nM | 1.01 | –
E21 [9], 12.34567901 nM | 1 | –
E21 [9], 37.037 nM | 0.846 | –
E21 [9], 111.1111111 nM | 3.57 | –
E21 [9], 333.333 nM | 0.377 | –
E21 [9], 1000 nM | 0.695 | –
E21 [9], 3000 nM | 0.387 | –
E28 [3], 4.11523 nM | – | 1.11
E28 [3], 12.34567901 nM | – | 1.17
E28 [3], 37.037 nM | – | 1.12
E28 [3], 111.1111111 nM | – | 1.08
E28 [3], 333.333 nM | – | 1.29
E28 [3], 1000 nM | – | 1.23
E28 [3], 3000 nM | – | 1.03
E28 [10], 4.11523 nM | 0.51 | –
E28 [10], 12.34567901 nM | 0.969 | –
E28 [10], 37.037 nM | 0.452 | –
E28 [10], 111.1111111 nM | 0.706 | –
E28 [10], 333.333 nM | 0.645 | –
E28 [10], 1000 nM | 0.83 | –
E28 [10], 3000 nM | 0.601 | –
E31 [4], 4.11523 nM | – | 1.13
E31 [4], 12.34567901 nM | – | 1.1
E31 [4], 37.037 nM | – | 1.15
E31 [4], 111.1111111 nM | – | 0.926
E31 [4], 333.333 nM | – | 1.17
E31 [4], 1000 nM | – | 1.01
E31 [4], 3000 nM | – | 1.16
E31 [11], 4.11523 nM | 0.705 | –
E31 [11], 12.34567901 nM | 0.703 | –
E31 [11], 37.037 nM | 0.741 | –
E31 [11], 111.1111111 nM | 0.746 | –
E31 [11], 333.333 nM | 0.485 | –
E31 [11], 1000 nM | 0.528 | –
E31 [11], 3000 nM | 0.487 | –
E34 [5], 4.11523 nM | – | 1.07
E34 [5], 12.34567901 nM | – | 1.03
E34 [5], 37.037 nM | – | 1.11
E34 [5], 111.1111111 nM | – | 1.17
E34 [5], 333.333 nM | – | 1.07
E34 [5], 1000 nM | – | 0.937
E34 [5], 3000 nM | – | 1.02
E34 [12], 4.11523 nM | 0.76 | –
E34 [12], 12.34567901 nM | 0.538 | –
E34 [12], 37.037 nM | 0.692 | –
E34 [12], 111.1111111 nM | 0.922 | –
E34 [12], 333.333 nM | 0.78 | –
E34 [12], 1000 nM | 0.612 | –
E34 [12], 3000 nM | 0.538 | –
E57 [6], 4.11523 nM | – | 1
E57 [6], 12.34567901 nM | – | 1.01
E57 [6], 37.037 nM | – | 1.01
E57 [6], 111.1111111 nM | – | 1.03
E57 [6], 333.333 nM | – | 1.01
E57 [6], 1000 nM | – | 1.06
E57 [6], 3000 nM | – | 0.989
E57 [13], 4.11523 nM | 0.603 | –
E57 [13], 12.34567901 nM | 0.59 | –
E57 [13], 37.037 nM | 0.529 | –
E57 [13], 111.1111111 nM | 0.751 | –
E57 [13], 333.333 nM | 0.536 | –
E57 [13], 1000 nM | 0.871 | –
E57 [13], 3000 nM | 0.419 | –
FT3469 [7], 4.11523 nM | – | 1.24
FT3469 [7], 12.34567901 nM | – | 1.17
FT3469 [7], 37.037 nM | – | 1.17
FT3469 [7], 111.1111111 nM | – | 1.1
FT3469 [7], 333.333 nM | – | 1.28
FT3469 [7], 1000 nM | – | 0.993
FT3469 [7], 3000 nM | – | 0.866
FT3469 [14], 4.11523 nM | 0.799 | –
FT3469 [14], 12.34567901 nM | 1.17 | –
FT3469 [14], 37.037 nM | 0.764 | –
FT3469 [14], 111.1111111 nM | 1.09 | –
FT3469 [14], 333.333 nM | 0.633 | –
FT3469 [14], 1000 nM | 0.854 | –
FT3469 [14], 3000 nM | 0.676 | –

Source: the supplement of paper PMC13207355
